Experimental data published in US20180064662A1 (THE GENERAL HOSPITAL CORPORATION, priority 2015, published 2018).

What was measured:
[1] = tested on: human pancreatic stellate cells (PSCs); assay: Human PSCs incubated with metformin in vitro (immunofluorescence, Western blot); assay type: cell-based
Description: Following treatment, cells were collected for RNA and protein extraction in order to perform subsequent analysis of gene expression of cytokines and polarization markers, and for analysis of signaling and metabolic pathways. […] Cells were collected for protein extraction for analysis of the activation of fibrosis-related pathways. […] The cells were fixed with 4% paraformaldehyde and blocked with 5% normal donkey serum for 1 h. They were incubated with the designated primary antibodies overnight at 4° C. then for 2 h with the appropriate secondary antibodies at RT. PBS was used for all washes and the stained samples were mounted with Prolong Gold with DAPI. Images were acquired using a confocal microscope. The antibodies used and image acquisition settings are described below. Both cell types were grown in Dulbecco's modified Eagle's medium (Sigma, St. Louis, Mo.) supplemented with 5% (v/v) heat inactivated fetal bovine serum (FBS; Sigma), 100 units/ml penicillin and streptomycin. Cells were cultured at 37° C. in a humidified atmosphere including 5% CO2.
Each tumor sample was homogenized directly in lysis buffer for protein extraction. 20 ug of denatured protein per sample was loaded on 7%, 10% and 12% SDS-polyacrylamide gels. Antibodies used: phospho-p38 MAPKT^180/Y182 and p38; phospho-JNK (SAPK/JNK)^Thr183/Tyr185 and JNK; phospho-AKT^Ser473 and AKT, phospho-ERK(p44/42 MAPK)^T202/Y204 and ERK; phospho-NF-κB^Ser536 and NK-κB; p65^Ser536; phospho-Smad2^Ser465/467 and Smad2; phospho-IGF-I Receptor β^Tyr1135 and IGF; Phospho-IRS-1^Ser612 and IRS; IR; phpspho-stat3^Tyr705 and stat3; Phospho-AMPKα^Thr172 and Ampkα; phospho-Ampkβ^Ser108 and Ampk; phospho-ACC^Ser79 and ACC; Phospho-PDGF Receptor β^Tyr751 and PDGF Receptor β and snail, c-cadherin and vimentin, TGF-β, β-catenin, twist, LC3B. All antibodies listed above were obtained from Cell Signaling Technology (Beverly, Mass.), and diluted 1:1000 with the exception of phospho-JNK (SAPK/JNK)^Thr183/Tyr185, Phospho-NF-κB p65^Ser536, phospho-Smad2^Ser465/467, phospho-IGF-I Receptor β^Tyr1135, Cleaved caspase-3, Phospho-IRS-1^Ser612. Other antibodies used were: αSMA and phospho-Insulin Receptor^Y972 (1:1000 and 1:500, Abcam, Mass.); col-1 (1:1000); MMP-9 and MMP-2 (1:500 and 1:200, EMD Millipore-Billerica, Mass.), AT1 (1:1000, LifeSpan BioSciences Inc, WA), ZEB1 (1:1000, Novus Biologicals, CO), and β-actin (1:5000, Sigma, Mo.). Quantification of protein expression relative to total receptor or β-actin was obtained using Image J software.

PAN02 tumors = tested on: PAN02 tumors
Excerpt: All experimental use of animals was approved by the institutional animal care and use committee at Massachusetts General Hospital (MGH). All animal procedures abided by Public Health Service Policy on Humane Care of Laboratory Animals guidelines. All mice were bred and maintained MGH animal facility. Wild-type (WT) C57BL/6 mice were originally obtained from the Jackson Laboratory (The Jackson Laboratory, Bar Harbor, Me.) but were bred and maintained in a defined-flora colony. VEGFR1 tyrosine kinase-knockout mice (Flt1^TK−/−) of mixed C57BL/6 and SV129 strain background were originally developed at the University of Tokyo, Japan (Hiratsuka et al. Proc Natl Acad Sci USA (1998)95(16): 9349-54), and subsequently backcrossed to 99.9% C57BL/6 strain background (N10 equivalent) at Massachusetts General Hospital. Strain background was verified by the Jackson Laboratory's Speed Congenic Development Service. Genotyping was performed using polymerase chain reaction (PCR) analysis, as previously described (Hiratsuka et al.). Age-matched animals were used for all experiments. Mice were maintained on a 12-h light-dark cycle in a temperature-controlled barrier facility, with ad libitum access to food and acidified water, unless otherwise specified.
Mice (7-week old) were given either 10% or a 60% fat diet (D12450J and D12492, Research Diets, New Brunswick, N.J.) for 10 weeks, as described in Surwit et al. Metabolism (1995) 44(5):645-51. Body weight was monitored weekly and mice on a high-fat diet were defined as obese if their body weight was greater than 3 SD above the weight of the low fat diet group. At the end of the experiment, animals were weighed and euthanized, and the inguinal, perigonadal, and perineal fat pads were excised and weighed.
Glucose (GTT) and insulin tolerance tests (ITT) were performed after 8 and 9 weeks on the diet, respectively. Male mice were fasted for 16 hours (5pm-9am) for GTT, or 3 hours (9am-12pm) for ITT. Glucose (0.75 mg/g body weight) or insulin (1U/kg body weight) was administered by intraperitoneal (i.p.) injection, and tail blood was sampled at 0, 15, 30, 60, 90, and 120 minutes after administration of glucose/insulin. Blood glucose levels were measured using a Precision Xtra glucose meter (Abbott Diagnostics, Bedford, MA, USA). Glucose tolerance was evaluated calculating the area under the curve (AUC) for each mouse according to the following equation: […]
C57BL/6 VEGFR1(TK)−/− or WT obese and lean mice (after 10 weeks of diets) were used for tumor implantation studies. To induce pancreatic tumors, small (˜1 mm in diameter) chunks from a PAN02 pancreatic tumor source were grafted in the pancreata of obese and lean male mice. To induce breast tumors, 1×10^6 E0771 breast cancer cells were implanted in the mammary fat pad of lean and obese female mice. About 3 weeks after implantation, tumors were removed and tissue was assessed for immune cell infiltration, gene and protein expression of inflammatory, metabolic and major signaling pathway markers. Plasma was also collected and assessed for insulin, IGF-1, glucose and inflammatory markers (see below). Metastatic burden was assessed by counting lung metastasis in the E0771 breast cancer model, and evaluating abdominal wall invasion as well as mesentery metastasis in the PAN02 pancreatic cancer model. For abdominal wall invasion, animals were scored from 0 to 3 based on the extent of invasion: 0=no invasion, 1=less than 3 metastasis, 2=less than 6 metastasis, 3=more than 6 metastasis.
Immediately following excision, tumor tissue was snap frozen and stored in liquid nitrogen until used. Total RNA was extracted and relative gene expression was determined using RT2 Profiler PCR Arrays system (Qiagen) on a Stratagene Mx3000P QPCR System.

[2] = VEGFR-1 inhibition and metformin combined

## CN(C)C(=N)N=C(N)N [metformin, 3-(diaminomethylidene)-1,1-dimethylguanidine]
[1]; metformin 0, 0.1, 1 and 10 mM, Western blot
  protein levels of MMP9 in PSCs: decreased protein levels of MMP9
[1]; metformin 1 mM, 48 h
  expression of HA in PSCs: decreased
  expression of collagen-I in PSCs: decreased
[1]; metformin 0.1-1mM, Western blot
  expression of AT1, TGF-β and downstream signaling via SMAD-2, PDGF-I3: reduced expression
[1]; relatively higher doses (1-10 mM)
  canonical signaling pathways ERK, p38 and STAT3: affected canonical signaling pathways
PAN02 tumors; [2]
  pericyte coverage in tumors: increased pericyte coverage
  vessel density in tumor and adipose tissue: unaltered vessel density
PAN02 tumors; combination group
  tumor cell apoptosis: increased tumor cell apoptosis
  tumor cell proliferation: decreased proliferation
PAN02 tumors; combination group compared to control or anti-VEGFR-1 alone
  fraction of perfused vessels: significantly higher
PAN02 tumors; obese Flt1TK-/- mice with metformin
  IR/IGF-1 signaling or AMPK/ACC activation: no changes
PAN02 tumors; obese Flt1TK-/- mice, 3 weeks after implantation of PAN02
  plasma insulin: prevented the increased insulin
PAN02 tumors; obese mice, VEGFR-1 inhibition and metformin combined
  PAN02 tumor weight: at its lowest
PAN02 tumors; obese tumors
  expression of major gluconeogenic genes downregulated by VEGFR-1 inhibition: restored expression of major gluconeogenic genes
